For orientation: melting point means the temperature of the solid-liquid transition.

Tested on in one data set: not given
Experiment: not given
Conditions: not given
`CC(C)[C@@H]1C(=O)N(CC(=O)N[C@@H](Cc2ccccc2)C(=O)C2=NCC(C)(C)S2)C(c2ccccc2)=CN1C(=O)c1ccncc1` [Compound No. 10-10, (2S)-1-(5,5-Dimethyl-4,5-dihydro-1,3-thiazol-2-yl)-2-{(3R)-3-isopropyl-2-oxo-6-phenyl-4-(4-pyridylcarbonyl)-1,2,3,4-tetrahydropyrazin-1-yl}methylcarbonylamino-1-oxo-3-phenylpropane] had a melting point of 100 to 125 °C.

In turn, `CC(C)[C@@H]1C(=O)N(CC(=O)N[C@@H](Cc2ccccc2)C(=O)C2=NC(C)(C)CO2)C(c2ccccc2)=CN1C(=O)c1cc[n+](CC(N)=O)cc1.[I-]` [Compound No. 21-12, 4-{(2R)-4-[(1S)-1-Benzyl-2-(4,4-dimethyl-4,5-dihydro-1,3-oxazol-2-yl)-2-oxoethylcarbamoylmethyl]-2-isopropyl-3-oxo-5-phenyl-1,2,3,4-tetrahydro-1-pyrazinylcarbonyl}-1-(carbamoylmethyl)pyridinium iodide] showed a melting point of 78 to 85 °C.

Take `CC(C)[C@@H]1C(=O)N(CC(=O)N[C@@H](Cc2ccccc2)C(=O)C2=NC(C)(C)CO2)C(c2ccccc2)=CN1C(=O)c1ccc[n+](CC(N)=O)c1.[Br-]`: the melting point was determined as 110 °C.

`CC(C)[C@@H]1C(=O)N(CC(=O)N[C@@H](Cc2ccccc2)C(=O)C2=NC(C)(C)CO2)C(c2ccccc2)=CN1C(=O)c1ccc[n+](Cc2ccccc2)c1.[Br-]` [Compound No. 21-3, 1-Benzyl-3-[(2R)-4-{(1S)-1-benzyl-2-(4,4-dimethyl-4,5-dihydro-1,3-oxazol-2-yl)-2-oxoethylcarbamoylmethyl}-2-isopropyl-3-oxo-5-phenyl-1,2,3,4-tetrahydro-1-pyrazinylcarbonyl]pyridinium bromide] showed a melting point of 135 to 150 °C.

The target in another data set is T1, chymase extracted from a dog cardiac tissue (Canis lupus familiaris, UniProt P21842).
T1 construct: The obtained supernatant is used as a chymase enzyme solution; from tissue; host or cells: beagle heart, left ventricle (2.0 M KCl / 1% Triton X-100 extract)
T1 sequence (P21842 22-249): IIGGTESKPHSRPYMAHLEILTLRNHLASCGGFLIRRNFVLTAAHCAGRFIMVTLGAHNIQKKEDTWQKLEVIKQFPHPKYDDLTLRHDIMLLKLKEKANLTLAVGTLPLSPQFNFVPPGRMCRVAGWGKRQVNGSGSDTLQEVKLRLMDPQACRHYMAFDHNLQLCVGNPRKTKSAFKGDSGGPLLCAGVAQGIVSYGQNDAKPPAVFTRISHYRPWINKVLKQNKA
As to the kind of experiment: Chymase inhibitory effect (liberation of His-Leu from angiotensin I, fluorescence). Format: biochemical. As to conditions: substrate angiotensin I; 37° C., one hour; pH 8 reaction buffer; read-out: IC50 (concentration required to inhibit the chymase enzymatic activity by 50%). From the text: Chymase (enzyme) causes angiotensin I (substrate) to liberate a dipeptide (His-Leu) by the enzyme reaction with the substrate. It was reported that an enzymatic activity of chymase can be measured by measuring fluorescence intensity of the resulting peptide (Biochem. Biophys. Res. Com., 149 (3) 1186 (1987)). Since drugs having chymase inhibitory activities suppress this liberation of the dipeptide, the chymase inhibitory activities of the drugs can be measured by measuring fluorescence intensity. In the present pharmacological test, chymase inhibitory effects of the present compounds were studied by using chymase extracted from a dog cardiac tissue (J. Biol. Chem., 265 (36), 22348 (1990)).
• 1. A beagle is killed by drawing blood under Nembutal anesthesia, a heart is enucleated, and left ventricle is separated. • 2. This left ventricle is finely minced, and the tissue weight is measured. • 3. A 0.02 M Tris-HCl buffer (pH 7.4) is added to the tissue in an amount of 10 times by volume the tissue weight. The obtained mixture is homogenized at 8,000 rpm for 20 seconds and then centrifuged at 4° C. and 21,000 rpm for 30 minutes, and the resulting supernatant is discarded. • 4. The same procedure as the above 3 is repeated twice for the residue. Then, a 0.02 M Tris-HCl buffer (pH 7.4) containing 1% Triton X-100 and 0.01 M potassium chloride is added to the residue in an amount of 10 times by volume the amount of the residue. The obtained mixture is homogenized at 8,000 rpm for 20 seconds, then incubated at 4° C. for one hour and centrifuged at 21,000 rpm for 30 minutes, and the supernatant is discarded. • 5. A 0.02 M Tris-HCl buffer (pH 7.4) containing 1% Triton X-100 and 0.5 M potassium chloride is added to the residue in an amount of 10 times by volume the amount of the residue. The obtained mixture is homogenized at 8,000 rpm for 20 seconds, then incubated at 4° C. for one hour and centrifuged at 21,000 rpm for 30 minutes, and the supernatant is discarded. • 6. A 0.02 M Tris-HCl buffer (pH 7.4) containing 1% Triton X-100 and 2.0 M potassium chloride is added to the residue in an amount of 10 times the amount of the residue. The obtained mixture is homogenized at 8,000 rpm for 20 seconds, then incubated at 4° C. for one hour and centrifuged at 21,000 rpm for 30 minutes. The obtained supernatant is used as a chymase enzyme solution. [2. Preparation of Reaction Buffer]
Tris-HCl and disodium ethylenediaminetetraacetate are dissolved in water so that their concentrations are 92.3 mM and 12.0 mM respectively to prepare a reaction buffer adjusted to pH 8.
Angiotensin I is dissolved in water to prepare a 1.54 mM substrate solution.
A test compound is dissolved in dimethyl sulfoxide to prepare 3.0×10^−3M, 3.0×10^−4 M, 3.0×10^−5 M and 3.0×10^−6 M test compound solutions.
• 1. The reaction buffer (32.5 μl), the substrate solution (75.0 μl), the chymase enzyme solution (37.5 μl) and the test compound solution (5 μl) are mixed. • 2. The obtained mixture is incubated at 37° C. for one hour. • 3. To the mixture is added 15% trichloroacetic acid (225 μl), and the whole is centrifuged at 4° C. and 14,000 rpm for five minutes. • 4. The supernatant is taken out. A 1% orthophthalaldehyde/methanol solution (165 μl) is added to 300 μl of this supernatant, and the whole is stirred and allowed to stand at room temperature for 10 minutes. • 5. 1.5 M Hydrochloric acid (300 μl) is added to the resulting mixture, and the whole is stirred and centrifuged at 4° C. and 14,000 rpm for two minutes. • 6. The supernatant is taken out and irradiated with light having a wavelength of 340 nm, and fluorescence intensity is measured at a wavelength of 455 nm.
The blank of this test is defined as follows. […]
`CC(=O)N1C=C(c2ccccc2)N(CC(=O)N[C@@H](Cc2ccccc2)C(=O)c2nc3ccccc3s2)C(=O)C1C(C)C` (mixture of isomers) [Compound No. 2-46, (2S)-2-{(3RS)-4-Acetyl-3-isopropyl-2-oxo-6-phenyl-1,2,3,4-tetrahydropyrazin-1-yl}methylcarbonylamino-1-(1,3-benzothiazol-2-yl)-1-oxo-3-phenylpropane]: the IC50 is 3800 nM.

For the compound `CC(C)OC(=O)C(=O)[C@H](Cc1ccccc1)NC(=O)CN1C(=O)C(C(C)C)N(C(=O)c2cccnc2)C=C1c1ccccc1` (mixture of isomers) [Compound No. 2-31, Isopropyl (3S)-3-{(3RS)-3-isopropyl-2-oxo-6-phenyl-4-(3-pyridylcarbonyl)-1,2,3,4-tetrahydropyrazin-1-yl}methylcarbonylamino-2-oxo-4-phenylbutyrate], the IC50 was 210 nM.

As to `COc1ccc(C2=CSC(C(C)C)C(=O)N2CC(=O)N[C@@H](Cc2ccccc2)C(=O)C(=O)OC(C)C)cc1` (mixture of isomers) [Compound No. 2-65, Isopropyl (3S)-3-{(2RS)-2-isopropyl-5-(4-methoxyphenyl)-3-oxo-3,4-dihydro-2H-1,4-thiazin-4-yl}methylcarbonylamino-2-oxo-4-phenylbutyrate], the IC50 came out at 280 nM.

As for `CC(C)OC(=O)C(=O)[C@H](Cc1ccccc1)NC(=O)CN1C(=O)[C@@H](C(C)C)N(C(=O)c2ccccc2)C=C1c1ccccc1` [Compound No. 2-22, Isopropyl (3S)-3-{(3R)-4-benzoyl-3-isopropyl-2-oxo-6-phenyl-1,2,3,4-tetrahydropyrazin-1-yl}methylcarbonylamino-2-oxo-4-phenylbutyrate], the IC50 was found to be 200 nM.

For `CC(=O)N1C=C(c2ccccc2)N(CC(=O)N[C@@H](Cc2ccccc2)C(=O)C2=NCCS2)C(=O)C1C(C)C` (mixture of isomers) [Compound No. 2-48, (2S)-2-{(3RS)-4-Acetyl-3-isopropyl-2-oxo-6-phenyl-1,2,3,4-tetrahydropyrazin-1-yl}methylcarbonylamino-1-(4,5-dihydro-1,3-thiazol-2-yl)-1-oxo-3-phenylpropane], the IC50 is 1200 nM.

On to `CC(C)OC(=O)C(=O)[C@H](Cc1ccccc1)NC(=O)CN1C(=O)C(C(C)C)N(C(=O)c2ccncc2)C=C1c1ccccc1` (mixture of isomers) [Compound No. 2-32, Isopropyl (3S)-3-{(3RS)-3-isopropyl-2-oxo-6-phenyl-4-(4-pyridylcarbonyl)-1,2,3,4-tetrahydropyrazin-1-yl}methylcarbonylamino-2-oxo-4-phenylbutyrate], for which the IC50 worked out at 360 nM.

For `CC(C)OC(=O)C(=O)[C@H](Cc1ccccc1)NC(=O)CN1C(=O)C(C(C)C)N(S(=O)(=O)c2ccccc2)C=C1c1ccccc1` (mixture of isomers) [Compound No. 2-34, Isopropyl (3S)-3-{(3RS)-4-benzenesulfonyl-3-isopropyl-2-oxo-6-phenyl-1,2,3,4-tetrahydropyrazin-1-yl}methylcarbonylamino-2-oxo-4-phenylbutyrate], the IC50 stood at 250 nM.

Take `CC(=O)N1C=C(c2ccccc2)N(CC(=O)N[C@@H](Cc2ccccc2)C(=O)C2=NCCO2)C(=O)C1C(C)C` (mixture of isomers) [Compound No. 2-47, (2S)-2-{(3RS)-4-Acetyl-3-isopropyl-2-oxo-6-phenyl-1,2,3,4-tetrahydropyrazin-1-yl}methylcarbonylamino-1-(4,5-dihydro-1,3-oxazol-2-yl)-1-oxo-3-phenylpropane]: the IC50 was determined as 500 nM.

`CC(=O)N1C=C(c2ccccc2)N(CC(=O)NC(Cc2ccccc2)C(=O)C(F)(F)F)C(=O)C1C(C)C` (racemic) [Compound No. 4-1, (3RS)-3-{(3RS)-4-Acetyl-3-isopropyl-2-oxo-6-phenyl-1,2,3,4-tetrahydropyrazin-1-yl}methylcarbonylamino-2-oxo-4-phenyl-1,1,1-trifluorobutane]: the IC50 is 1500 nM.

In the case of `CC(C)C1C(=O)N(CC(=O)N[C@@H](Cc2ccccc2)C(=O)C2=NC(C)(C)CO2)C(c2ccccc2)=CN1C(=O)c1ccccc1` (mixture of isomers) [Compound No. 10-7, (2S)-2-{(3RS)-4-Benzoyl-3-isopropyl-2-oxo-6-phenyl-1,2,3,4-tetrahydropyrazin-1-yl}methylcarbonylamino-1-(4,4-dimethyl-4,5-dihydro-1,3-oxazol-2-yl)-1-oxo-3-phenylpropane], the IC50 is 370 nM.

As to `CC(C)OC(=O)C(=O)[C@H](Cc1ccccc1)NC(=O)CN1C(=O)C(C(C)C)SC=C1c1ccccc1` (mixture of isomers) [Compound No. 2-63, Isopropyl (3S)-3-{(2RS)-2-isopropyl-3-oxo-5-phenyl-3,4-dihydro-2H-1,4-thiazin-4-yl}methylcarbonylamino-2-oxo-4-phenylbutyrate], the IC50 amounted to 320 nM.

Source of the values: patent US6960575B2, “Thiazine derivatives” (Santen Pharmaceutical Co., Ltd., priority 1999, dated 2005).
